Assay results taken from patent US11091497B2, “Pyrano[3,4-b]pyrazine kappa opioid receptor ligands for treating addiction, pruritus, pain, and inflammation” (The Rockefeller University, priority 2017, dated 2021).

Experiments:
[1] = biological target: T1, human kappa opioid receptors (Homo sapiens, UniProt P41145); assay: [35S]GTPγS stimulation, membranes from U2OS cells; format: biochemical; conditions: for Emax: read-out: GTPγS stimulation % efficacy
T1 construct: expressed in transfected cells; host or cells: U2OS
T1 sequence (P41145 whole entry): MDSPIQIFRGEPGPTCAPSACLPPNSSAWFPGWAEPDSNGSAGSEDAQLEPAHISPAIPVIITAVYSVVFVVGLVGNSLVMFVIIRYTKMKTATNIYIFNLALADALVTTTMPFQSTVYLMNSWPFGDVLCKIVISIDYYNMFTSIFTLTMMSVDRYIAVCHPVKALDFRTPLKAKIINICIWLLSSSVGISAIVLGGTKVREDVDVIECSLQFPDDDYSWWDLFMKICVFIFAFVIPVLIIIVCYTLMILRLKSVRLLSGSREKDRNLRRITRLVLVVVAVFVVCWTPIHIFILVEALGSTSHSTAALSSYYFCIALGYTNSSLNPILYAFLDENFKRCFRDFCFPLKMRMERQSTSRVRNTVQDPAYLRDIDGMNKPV

Serum prolactin levels = assay: Prolactin release in mice; format: in vivo; conditions: intraperitoneal, 30 minutes prior to sampling
Method: Mice were injected intraperitoneally with the compound to be tested 30 minutes prior to sampling. Trunk blood was collected by rapid decapitation, followed within 2 hours by preparation of serum. Serum prolactin levels were determined using a commercially available enzyme-linked immunoassay (AbCam, Cambridge, UK) following dilution of serum 5-fold in assay buffer.

Compound | EC50 [1] [nM] | Emax [1] [%] | prolactin release (Serum prolactin levels; 5 mg/kg) | prolactin release (Serum prolactin levels; 30 mg/kg)
O=C(Cc1ccc(Cl)c(Cl)c1)N1CCN[C@@H]2COC[C@H](N3CCCC3)[C@H]21 (racemic) [Example 5A22, 1-[8-pyrrolidin-1-yl-2,3,4,4a,5,7,8,8a-octahydropyrano(3,4-b)pyrazin-1-yl]-2-(3,4-dichlorophenyl)ethanone] | 63 | 96 | significant prolactin release | –
CN1CCN(C(=O)Cc2ccc(Cl)c(Cl)c2)[C@H]2[C@H]1COC[C@@H]2N1CCCC1 (racemic) [Example 5A23, 1-[4-methyl-8-pyrrolidin-1-yl-3,4a,5,7,8,8a-hexahydro-2H- -pyrano(3,4-b)pyrazin-1-yl]-2-(3,4-dichlorophenyl)ethanone] | 46 | 76 | – | significant prolactin release
